# Experiments:
# [1] = compound: CCN1CCN(Cc2ccc(Nc3ncc(F)c(-c4cc(F)c5nc(C)n(C(C)C)c5c4)n3)nc2)CC1; test: increase in dead-cell fraction, 72 h; higher = more death;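 also: breast cancer cell lines in 384-well plates, stained with Hoechst plus LIVE/DEAD far red dye and imaged, cells above an LDR intensity threshold counted dead, Hoechst-negative corpses included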
# YKL-5-124 = compound: C=CC(=O)Nc1ccc(C(=O)Nc2[nH]nc3c2CN(C(=O)N[C@H](CN(C)C)c2ccccc2)C3(C)C)cc1 [YKL-5-124]; test: as above
# BSJ-03-123 = compound: CC(=O)c1c(C)c2cnc(Nc3ccc(N4CCN(CCOCCOCCOCCNC(=O)COc5cccc6c5C(=O)N(C5CCC(=O)NC5=O)C6=O)CC4)cn3)nc2n(C2CCCC2)c1=O [BSJ-03-123]; test: as above
# Neratinib/HKI272 = compound: CCOc1cc2ncc(C#N)c(Nc3ccc(OCc4ccccn4)c(Cl)c3)c2cc1NC(=O)/C=C/CN(C)C [Neratinib/HKI272]; test: as above
# LEE011/Ribociclib = compound: CN(C)C(=O)c1cc2cnc(Nc3ccc(N4CCNCC4)cn3)nc2n1C1CCCC1 [LEE011/Ribociclib]; test: as above
# Flavopiridol = compound: CN1CC[C@H](c2c(O)cc(O)c3c(=O)cc(-c4ccccc4Cl)oc23)[C@H](O)C1 [Flavopiridol]; test: as above
# THZ1 = compound: CN(C)C/C=C/C(=O)Nc1ccc(C(=O)Nc2cccc(Nc3ncc(Cl)c(-c4c[nH]c5ccccc45)n3)c2)cc1 [THZ1]; test: as above
# THZ531 = compound: CN(C)C/C=C/C(=O)Nc1ccc(C(=O)N2CCC[C@@H](Nc3ncc(Cl)c(-c4c[nH]c5ccccc45)n3)C2)cc1 [THZ531]; test: as above
# [2] = compound: CCc1cnn2c(NCc3ccc[n+]([O-])c3)cc(N3CCCC[C@H]3CCO)nc12; test: as above
# [3] = compound: CC(=O)c1c(C)c2cnc(Nc3ccc(N4CCNCC4)cn3)nc2n(C2CCCC2)c1=O; test: as above
# Luminespib/NVP-AUY922 = compound: CCNC(=O)c1noc(-c2cc(C(C)C)c(O)cc2O)c1-c1ccc(CN2CCOCC2)cc1 [Luminespib/NVP-AUY922]
# Saracatinib/AZD0530 = compound: CN1CCN(CCOc2cc(OC3CCOCC3)c3c(Nc4c(Cl)ccc5c4OCO5)ncnc3c2)CC1 [Saracatinib/AZD0530]
# BSJ-01-175 = compound: CN(C)C/C=C/C(=O)Nc1ccc(O[C@@H]2CCC[C@@H](Nc3ncc(Cl)c(-c4c[nH]c5ccccc45)n3)C2)cc1 [BSJ-01-175]
# THZ-P1-2 = compound: CN(C)C/C=C/C(=O)NC1=CC=C(C=C1)C(=O)NC2=CC=CC(=C2)NC3=NC=NC(=C3)C4=CNC5=CC=CC=C54 [THZ-P1-2]
# Ceritinib/LDK378 = compound: Cc1cc(Nc2ncc(Cl)c(Nc3ccccc3S(=O)(=O)C(C)C)n2)c(OC(C)C)cc1C1CCNCC1 [Ceritinib/LDK378]
# [4] = compound: CCCCOc1c(C(=O)c2c(F)cc(C)cc2F)c[nH]c2nncc1-2
# 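For GR50, 72 h in this document: breast cancer and non-malignant breast epithelial cell lines, Deep Dye Drop or Dye Drop imaging, nine half-log doses, GR normalized to time-zero plates and DMSO-only controls.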
cell line,measurement,setting,value
SUM1315,increase in dead-cell fraction,[1]; 0.001 µM,0.0105
same,increase in dead-cell fraction,[1]; 0.003162 µM,0.0024
same,increase in dead-cell fraction,[1]; 0.01 µM,-0.0018
same,increase in dead-cell fraction,[1]; 0.03162 µM,0.0186
same,increase in dead-cell fraction,[1]; 0.1 µM,0.0167
same,increase in dead-cell fraction,[1]; 0.3162 µM,0.025
same,increase in dead-cell fraction,[1]; 1 µM,0.0225
same,increase in dead-cell fraction,[1]; 3.162 µM,0.0197
same,increase in dead-cell fraction,[1]; 10 µM,0.132
same,increase in dead-cell fraction,YKL-5-124; 0.001 µM,0.0195
same,increase in dead-cell fraction,YKL-5-124; 0.003162 µM,0.0396
same,increase in dead-cell fraction,YKL-5-124; 0.01 µM,0.0503
same,increase in dead-cell fraction,YKL-5-124; 0.03162 µM,0.0215
same,increase in dead-cell fraction,YKL-5-124; 0.1 µM,0.0766
same,increase in dead-cell fraction,YKL-5-124; 0.3162 µM,0.0731
same,increase in dead-cell fraction,YKL-5-124; 1 µM,0.171
same,increase in dead-cell fraction,YKL-5-124; 3.162 µM,0.134
same,increase in dead-cell fraction,YKL-5-124; 10 µM,0.364
same,increase in dead-cell fraction,BSJ-03-123; 0.001 µM,-0.0091
same,increase in dead-cell fraction,BSJ-03-123; 0.003162 µM,0.0246
same,increase in dead-cell fraction,BSJ-03-123; 0.01 µM,0.0376
same,increase in dead-cell fraction,BSJ-03-123; 0.03162 µM,0.0297
same,increase in dead-cell fraction,BSJ-03-123; 0.1 µM,0.0105
same,increase in dead-cell fraction,BSJ-03-123; 0.3162 µM,-0.0013
same,increase in dead-cell fraction,BSJ-03-123; 1 µM,0.033
same,increase in dead-cell fraction,BSJ-03-123; 3.162 µM,0.03
same,increase in dead-cell fraction,BSJ-03-123; 10 µM,0.0923
same,increase in dead-cell fraction,Neratinib/HKI272; 0.0003162 µM,0.0036
same,increase in dead-cell fraction,Neratinib/HKI272; 0.001 µM,0.0058
same,increase in dead-cell fraction,Neratinib/HKI272; 0.003162 µM,0.0067
same,increase in dead-cell fraction,Neratinib/HKI272; 0.01 µM,0.0047
same,increase in dead-cell fraction,Neratinib/HKI272; 0.03162 µM,0.0181
same,increase in dead-cell fraction,Neratinib/HKI272; 0.1 µM,0.0402
same,increase in dead-cell fraction,Neratinib/HKI272; 0.3162 µM,0.0578
same,increase in dead-cell fraction,Neratinib/HKI272; 1 µM,0.0857
same,increase in dead-cell fraction,Neratinib/HKI272; 3.162 µM,0.0855
same,increase in dead-cell fraction,LEE011/Ribociclib; 0.001 µM,0.0236
same,increase in dead-cell fraction,LEE011/Ribociclib; 0.003162 µM,0.0101
same,increase in dead-cell fraction,LEE011/Ribociclib; 0.01 µM,0.0448
same,increase in dead-cell fraction,LEE011/Ribociclib; 0.03162 µM,0.0191
same,increase in dead-cell fraction,LEE011/Ribociclib; 0.1 µM,0.054
same,increase in dead-cell fraction,LEE011/Ribociclib; 0.3162 µM,0.071
same,increase in dead-cell fraction,LEE011/Ribociclib; 1 µM,0.0703
same,increase in dead-cell fraction,LEE011/Ribociclib; 3.162 µM,0.0888
same,increase in dead-cell fraction,LEE011/Ribociclib; 10 µM,0.114
same,increase in dead-cell fraction,Flavopiridol; 0.0001 µM,0.0039
same,increase in dead-cell fraction,Flavopiridol; 0.0003162 µM,-0.0083
same,increase in dead-cell fraction,Flavopiridol; 0.001 µM,0.0048
same,increase in dead-cell fraction,Flavopiridol; 0.003162 µM,0.0087
same,increase in dead-cell fraction,Flavopiridol; 0.01 µM,0.0083
same,increase in dead-cell fraction,Flavopiridol; 0.03162 µM,0.0248
same,increase in dead-cell fraction,Flavopiridol; 0.1 µM,-0.0084
same,increase in dead-cell fraction,Flavopiridol; 0.3162 µM,0.383
same,increase in dead-cell fraction,Flavopiridol; 1 µM,0.596
same,increase in dead-cell fraction,THZ1; 0.0001 µM,0.0131
same,increase in dead-cell fraction,THZ1; 0.0003162 µM,-0.0262
same,increase in dead-cell fraction,THZ1; 0.001 µM,-0.0208
same,increase in dead-cell fraction,THZ1; 0.003162 µM,0.0035
same,increase in dead-cell fraction,THZ1; 0.01 µM,-0.0115
same,increase in dead-cell fraction,THZ1; 0.03162 µM,-0.0232
same,increase in dead-cell fraction,THZ1; 0.1 µM,-0.0483
same,increase in dead-cell fraction,THZ1; 0.3162 µM,0.0421
same,increase in dead-cell fraction,THZ1; 1 µM,0.61
same,increase in dead-cell fraction,THZ531; 0.0001 µM,0.0119
same,increase in dead-cell fraction,THZ531; 0.0003162 µM,-0.0037
same,increase in dead-cell fraction,THZ531; 0.001 µM,-0.0061
same,increase in dead-cell fraction,THZ531; 0.003162 µM,0.0067
same,increase in dead-cell fraction,THZ531; 0.01 µM,0.001
same,increase in dead-cell fraction,THZ531; 0.03162 µM,-0.0178
same,increase in dead-cell fraction,THZ531; 0.1 µM,-0.0022
same,increase in dead-cell fraction,THZ531; 0.3162 µM,0.0155
same,increase in dead-cell fraction,THZ531; 1 µM,0.204
same,increase in dead-cell fraction,[2]; 0.0001 µM,-0.0013
same,increase in dead-cell fraction,[2]; 0.0003162 µM,-0.0006
same,increase in dead-cell fraction,[2]; 0.001 µM,0.0062
same,increase in dead-cell fraction,[2]; 0.003162 µM,0.0147
same,increase in dead-cell fraction,[2]; 0.01 µM,0.0232
same,increase in dead-cell fraction,[2]; 0.03162 µM,0.578
same,increase in dead-cell fraction,[2]; 0.1 µM,0.63
same,increase in dead-cell fraction,[2]; 0.3162 µM,0.64
same,increase in dead-cell fraction,[2]; 1 µM,0.599
same,increase in dead-cell fraction,[3]; 0.0003162 µM,-0.0007
same,increase in dead-cell fraction,[3]; 0.001 µM,-0.0011
same,increase in dead-cell fraction,[3]; 0.003162 µM,-0.0024
same,increase in dead-cell fraction,[3]; 0.01 µM,0.0003
same,increase in dead-cell fraction,[3]; 0.03162 µM,0.0166
same,increase in dead-cell fraction,[3]; 0.1 µM,0.0188
same,increase in dead-cell fraction,[3]; 0.3162 µM,0.0295
same,increase in dead-cell fraction,[3]; 1 µM,0.0213
same,increase in dead-cell fraction,[3]; 3.162 µM,0.0282
same,"GR50, 72 h",Luminespib/NVP-AUY922,0.00486 µM
same,"GR50, 72 h",Saracatinib/AZD0530,1.39 µM
same,"GR50, 72 h",BSJ-01-175,0.419 µM
same,"GR50, 72 h",THZ-P1-2,7.11 µM
same,"GR50, 72 h",Ceritinib/LDK378,0.669 µM
same,"GR50, 72 h",[4],0.00376 µM
